Laboratory results as given in ChEMBL document CHEMBL1240525, “Synthesis of cyclic di-nucleotidic acids as potential inhibitors targeting diguanylate cyclase” (Bioorg Med Chem, 2010).
Active and inactive are the calls of the source. The rule behind the calls is not given here.

Legend:
Synechocystis sp. = experiment: Inhibition of Synechocystis sp. recombinant diguanylate cyclase Slr1143 expressed in Escherichia coli DH5alpha at 100 uM after 2 mins
[1] = Inhibition of Synechocystis sp. recombinant diguanylate cyclase Slr1143 expressed in Escherichia coli DH5alpha after 2 mins

O=P1(O)OC[C@H]2O[C@H](n3cnc4c(O)ncnc43)[C@H](O)[C@@H]2OP(=O)(O)OC[C@@H]2O[C@H](n3cnc4c(O)ncnc43)[C@@H](O)[C@H]2O1
inhibition (Synechocystis sp.): 60% | IC50 [1]: 68.9 µM

O=c1ccn([C@H]2O[C@@H]3COP(=O)(O)O[C@@H]4[C@H](O)[C@@H](n5ccc(=O)[nH]c5=O)O[C@H]4COP(=O)(O)O[C@H]3[C@H]2O)c(=O)[nH]1
inhibition (Synechocystis sp.): Active
